Laboratory results published in ChEMBL document CHEMBL1201862, “PubChem BioAssay data set” (2004).
The source made the active and inactive calls.

What was measured:
[1] = molecular target: T1, Runt-related transcription factor 1/Core-binding factor subunit beta (Homo sapiens, UniProt Q01196+Q13951); assay: disruptors of Runt domain/CBFb-SMMHC interaction – biochemical, FRET, Cerulean-Runt, Venus-CBFb-SMMHC, uHTS, […] (AID 1434); format: protein assay
[2] = molecular target: T1, Runt-related transcription factor 1/Core-binding factor subunit beta; assay: Runt domain/CBFb-SMMHC interaction disruptors – biochemical, TR-FRET (AID 1438); format: protein assay
Fatty acid synthase [3] = molecular target: T2, Fatty acid synthase (Homo sapiens, UniProt P49327); assay: inhibition of human FAS-TE enzyme activity – biochemical, endpoint fluorescence intensity, uHTS hits, dose response (AID 624327); format: functional;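 further: fluorescence from hydrolysis of an O-methyl fluorescein acyl ester substrate by the enzyme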
Fatty acid synthase [4] = molecular target: T2, Fatty acid synthase; assay: inhibition of human FAS-TE enzyme activity – biochemical, kinetic fluorescence intensity, dose response (AID 624326); format: functional;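 further: rate of fluorescence rise from hydrolysis of a fluorogenic O-methyl fluorescein ester substrate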
Coagulation factor XII = molecular target: T3, Coagulation factor XII (Homo sapiens, UniProt P00748); assay: activated coagulation factor XII inhibitor potency, concentration-effect curve, cell-free (AID 716); format: functional
T3 sequence (P00748 whole entry): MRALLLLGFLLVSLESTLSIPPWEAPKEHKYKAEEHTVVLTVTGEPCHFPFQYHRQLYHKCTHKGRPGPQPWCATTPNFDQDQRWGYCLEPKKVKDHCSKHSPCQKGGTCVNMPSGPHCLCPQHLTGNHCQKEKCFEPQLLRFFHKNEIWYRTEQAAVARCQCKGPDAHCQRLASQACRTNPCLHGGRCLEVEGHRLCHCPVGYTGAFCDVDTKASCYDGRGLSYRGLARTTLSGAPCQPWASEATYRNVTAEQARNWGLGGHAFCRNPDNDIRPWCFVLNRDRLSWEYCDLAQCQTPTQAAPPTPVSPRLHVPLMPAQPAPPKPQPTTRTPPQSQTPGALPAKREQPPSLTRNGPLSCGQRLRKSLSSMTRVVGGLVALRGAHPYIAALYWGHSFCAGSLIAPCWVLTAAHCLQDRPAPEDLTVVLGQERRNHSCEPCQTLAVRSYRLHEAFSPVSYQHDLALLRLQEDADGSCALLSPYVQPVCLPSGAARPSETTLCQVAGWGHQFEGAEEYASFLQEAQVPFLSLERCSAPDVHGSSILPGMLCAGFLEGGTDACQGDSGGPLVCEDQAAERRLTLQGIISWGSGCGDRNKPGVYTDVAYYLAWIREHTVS

Cytochrome P450 2C19 = Cytochrome P450 2C19 (Homo sapiens, UniProt P33261); assay: Cytochrome panel assay with activity outcomes. Panel member name: p450-cyp2c19 Compounds with AC50 equal or less than 10 uM are considered active; format: functional; conditions: read-out: AC50
Cytochrome P450 2C19, sequence (P33261 whole entry): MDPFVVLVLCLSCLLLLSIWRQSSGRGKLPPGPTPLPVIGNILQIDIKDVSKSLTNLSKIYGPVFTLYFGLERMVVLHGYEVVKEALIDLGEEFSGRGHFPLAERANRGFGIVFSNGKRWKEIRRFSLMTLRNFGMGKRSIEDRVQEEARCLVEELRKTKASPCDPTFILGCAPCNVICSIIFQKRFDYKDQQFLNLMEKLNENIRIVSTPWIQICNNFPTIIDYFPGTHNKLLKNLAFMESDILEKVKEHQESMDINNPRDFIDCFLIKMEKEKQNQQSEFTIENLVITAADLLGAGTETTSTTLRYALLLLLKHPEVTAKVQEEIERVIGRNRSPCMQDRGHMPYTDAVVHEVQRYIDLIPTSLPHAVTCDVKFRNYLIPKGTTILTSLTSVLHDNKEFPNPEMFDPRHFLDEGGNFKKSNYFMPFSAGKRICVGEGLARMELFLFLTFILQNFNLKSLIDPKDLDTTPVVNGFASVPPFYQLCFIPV

[5] = A cytotoxicity screen of small molecule inhibitors of the PhoP region in Salmonella typhi identified in the primary screen. [Related pubchem assays: 1850, 1864, 1985 ]; format: functional
[6] = molecular target: T4, Voltage-gated N-type calcium channel alpha-1B subunit/Amyloid beta A4 precursor protein-binding family A member 1 (Homo sapiens, UniProt Q00975+Q02410); format: protein assay
T4 sequence (Q00975 whole entry): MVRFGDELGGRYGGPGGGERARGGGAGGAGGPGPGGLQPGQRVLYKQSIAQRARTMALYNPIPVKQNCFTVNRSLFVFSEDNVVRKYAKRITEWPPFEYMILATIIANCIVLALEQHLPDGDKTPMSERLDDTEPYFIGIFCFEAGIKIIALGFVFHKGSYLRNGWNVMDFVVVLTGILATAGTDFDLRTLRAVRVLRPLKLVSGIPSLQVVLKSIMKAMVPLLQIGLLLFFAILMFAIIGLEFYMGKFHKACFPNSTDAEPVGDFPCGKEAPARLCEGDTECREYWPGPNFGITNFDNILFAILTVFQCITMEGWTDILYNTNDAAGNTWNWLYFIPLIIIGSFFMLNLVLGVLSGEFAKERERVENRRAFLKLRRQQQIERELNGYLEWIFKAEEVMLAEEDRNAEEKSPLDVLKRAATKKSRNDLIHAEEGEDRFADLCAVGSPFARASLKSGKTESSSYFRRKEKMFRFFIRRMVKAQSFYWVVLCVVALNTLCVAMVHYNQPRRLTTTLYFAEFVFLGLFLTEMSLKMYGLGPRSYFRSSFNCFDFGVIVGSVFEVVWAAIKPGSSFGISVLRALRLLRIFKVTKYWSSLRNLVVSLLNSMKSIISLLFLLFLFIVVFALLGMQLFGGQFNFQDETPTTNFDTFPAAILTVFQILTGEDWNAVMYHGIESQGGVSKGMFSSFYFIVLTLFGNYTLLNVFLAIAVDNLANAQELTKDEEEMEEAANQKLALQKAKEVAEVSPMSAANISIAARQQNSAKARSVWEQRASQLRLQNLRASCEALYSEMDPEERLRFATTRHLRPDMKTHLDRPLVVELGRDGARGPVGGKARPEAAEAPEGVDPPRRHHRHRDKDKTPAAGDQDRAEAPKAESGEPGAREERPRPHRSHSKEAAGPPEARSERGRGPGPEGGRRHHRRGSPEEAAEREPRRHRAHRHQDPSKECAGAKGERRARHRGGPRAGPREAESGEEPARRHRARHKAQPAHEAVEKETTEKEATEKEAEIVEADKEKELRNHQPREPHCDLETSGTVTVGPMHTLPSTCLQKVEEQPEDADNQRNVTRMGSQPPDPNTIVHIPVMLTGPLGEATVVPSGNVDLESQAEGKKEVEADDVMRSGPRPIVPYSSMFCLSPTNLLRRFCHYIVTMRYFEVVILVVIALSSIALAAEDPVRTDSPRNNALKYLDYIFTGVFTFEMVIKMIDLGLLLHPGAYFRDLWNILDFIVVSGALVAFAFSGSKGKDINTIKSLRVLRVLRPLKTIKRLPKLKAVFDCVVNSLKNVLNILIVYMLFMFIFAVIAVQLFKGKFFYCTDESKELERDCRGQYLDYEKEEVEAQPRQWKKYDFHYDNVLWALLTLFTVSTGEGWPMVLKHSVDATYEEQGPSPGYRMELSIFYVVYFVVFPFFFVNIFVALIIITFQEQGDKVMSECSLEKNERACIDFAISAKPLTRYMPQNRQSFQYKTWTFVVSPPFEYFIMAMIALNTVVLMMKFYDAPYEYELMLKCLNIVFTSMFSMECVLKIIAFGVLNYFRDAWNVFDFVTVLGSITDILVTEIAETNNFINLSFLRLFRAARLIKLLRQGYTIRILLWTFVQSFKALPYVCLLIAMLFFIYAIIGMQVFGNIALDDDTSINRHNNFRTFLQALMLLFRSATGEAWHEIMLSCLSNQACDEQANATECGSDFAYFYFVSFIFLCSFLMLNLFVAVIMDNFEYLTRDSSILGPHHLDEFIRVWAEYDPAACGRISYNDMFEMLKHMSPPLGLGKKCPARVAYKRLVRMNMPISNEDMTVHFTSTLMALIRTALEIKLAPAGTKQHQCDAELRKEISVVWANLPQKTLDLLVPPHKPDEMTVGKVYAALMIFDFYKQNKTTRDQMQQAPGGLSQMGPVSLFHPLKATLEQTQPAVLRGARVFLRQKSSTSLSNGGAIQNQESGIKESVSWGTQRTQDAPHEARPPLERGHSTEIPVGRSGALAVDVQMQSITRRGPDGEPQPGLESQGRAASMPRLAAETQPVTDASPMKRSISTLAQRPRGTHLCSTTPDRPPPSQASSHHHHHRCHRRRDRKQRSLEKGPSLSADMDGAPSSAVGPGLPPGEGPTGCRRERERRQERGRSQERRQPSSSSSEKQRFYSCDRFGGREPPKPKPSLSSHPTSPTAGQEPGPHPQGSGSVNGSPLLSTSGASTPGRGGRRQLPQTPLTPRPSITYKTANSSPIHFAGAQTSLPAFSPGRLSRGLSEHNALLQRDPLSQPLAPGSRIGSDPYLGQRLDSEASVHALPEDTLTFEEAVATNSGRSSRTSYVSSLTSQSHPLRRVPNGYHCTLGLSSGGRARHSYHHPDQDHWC
T4 sequence (Q02410 whole entry): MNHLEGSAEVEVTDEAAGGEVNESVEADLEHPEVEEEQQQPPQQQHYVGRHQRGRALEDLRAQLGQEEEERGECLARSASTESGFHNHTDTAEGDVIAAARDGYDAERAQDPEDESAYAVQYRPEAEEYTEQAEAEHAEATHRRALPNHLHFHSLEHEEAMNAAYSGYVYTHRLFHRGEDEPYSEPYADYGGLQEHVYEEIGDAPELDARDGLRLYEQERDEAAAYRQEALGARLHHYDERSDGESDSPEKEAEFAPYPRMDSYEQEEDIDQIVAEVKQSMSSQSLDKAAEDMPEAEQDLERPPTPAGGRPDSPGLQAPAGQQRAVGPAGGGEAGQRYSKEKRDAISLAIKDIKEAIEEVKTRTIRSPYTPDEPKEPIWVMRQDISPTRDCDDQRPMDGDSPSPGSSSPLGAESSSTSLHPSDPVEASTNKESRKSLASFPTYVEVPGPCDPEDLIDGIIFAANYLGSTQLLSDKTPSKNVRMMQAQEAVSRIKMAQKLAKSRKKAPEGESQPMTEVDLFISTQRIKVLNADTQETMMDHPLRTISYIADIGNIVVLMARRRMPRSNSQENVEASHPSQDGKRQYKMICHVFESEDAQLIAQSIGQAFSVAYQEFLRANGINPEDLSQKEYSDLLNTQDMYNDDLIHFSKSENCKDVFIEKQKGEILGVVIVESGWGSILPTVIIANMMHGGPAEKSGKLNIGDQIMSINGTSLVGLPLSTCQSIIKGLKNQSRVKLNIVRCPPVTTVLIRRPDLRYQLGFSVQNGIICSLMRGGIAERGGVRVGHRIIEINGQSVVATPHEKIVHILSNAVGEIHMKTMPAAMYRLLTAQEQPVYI

[7] = molecular target: T4, Voltage-gated N-type calcium channel alpha-1B subunit/Amyloid beta A4 precursor protein-binding family A member 1; format: protein assay; remark: listed apart in the source
[8] = molecular target: Glucose-6-phosphate 1-dehydrogenase (Homo sapiens, UniProt P11413); assay: inhibition of Homo sapiens G6PD, dose series – biochemical, fluorescence, selectivity assay for P. falciparum G6PD inhibitor project, dose response (AID 504792); format: functional
Glucose-6-phosphate 1-dehydrogenase, sequence (P11413 whole entry): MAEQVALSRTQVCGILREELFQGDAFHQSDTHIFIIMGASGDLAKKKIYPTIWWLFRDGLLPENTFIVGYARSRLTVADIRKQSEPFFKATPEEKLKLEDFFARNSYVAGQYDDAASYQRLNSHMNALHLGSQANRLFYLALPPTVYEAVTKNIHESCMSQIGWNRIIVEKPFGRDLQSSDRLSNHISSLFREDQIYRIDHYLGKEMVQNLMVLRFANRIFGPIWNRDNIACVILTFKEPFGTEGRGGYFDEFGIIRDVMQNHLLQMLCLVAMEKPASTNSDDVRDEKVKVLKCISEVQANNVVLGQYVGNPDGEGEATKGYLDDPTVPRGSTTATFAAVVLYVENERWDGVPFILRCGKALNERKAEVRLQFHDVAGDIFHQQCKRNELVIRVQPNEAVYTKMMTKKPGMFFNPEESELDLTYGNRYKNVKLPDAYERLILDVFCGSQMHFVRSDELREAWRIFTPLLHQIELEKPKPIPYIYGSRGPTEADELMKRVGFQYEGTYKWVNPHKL

[9] = molecular target: T5, Tyrosine-protein phosphatase non-receptor type 7 (Homo sapiens, UniProt P35236); assay: SAR analysis of chemical inhibitors of HePTP using a Fluorescent assay - Set 2. [Related pubchem assays (depositor defined):AID1059, AID1077, AID1661, AID2085, AID521]; format: functional
T5 sequence (P35236 whole entry): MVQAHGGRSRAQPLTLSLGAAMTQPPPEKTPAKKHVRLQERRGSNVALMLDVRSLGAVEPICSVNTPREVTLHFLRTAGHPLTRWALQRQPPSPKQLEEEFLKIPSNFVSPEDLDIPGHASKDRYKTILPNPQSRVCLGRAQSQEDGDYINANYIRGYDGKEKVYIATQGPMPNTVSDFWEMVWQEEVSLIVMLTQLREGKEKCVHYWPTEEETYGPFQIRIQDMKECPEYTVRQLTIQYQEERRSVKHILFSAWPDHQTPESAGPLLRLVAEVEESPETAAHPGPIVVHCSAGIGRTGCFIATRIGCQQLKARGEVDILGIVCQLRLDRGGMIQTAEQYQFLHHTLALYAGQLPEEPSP

[10] = molecular target: Dual specificity protein phosphatase 3 (Homo sapiens, UniProt P51452); assay: SAR VHR1 Fluorescent Assay for In Vitro dose response studies Set 2. [Related pubchem assays (depositor defined):AID1654, AID1661, AID1878]; format: functional
Dual specificity protein phosphatase 3, sequence (P51452 whole entry): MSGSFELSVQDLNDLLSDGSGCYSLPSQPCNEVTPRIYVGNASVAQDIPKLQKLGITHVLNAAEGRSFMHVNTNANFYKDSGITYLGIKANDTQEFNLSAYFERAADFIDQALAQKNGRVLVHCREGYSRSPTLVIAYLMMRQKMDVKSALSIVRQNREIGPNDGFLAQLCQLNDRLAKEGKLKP

Vibrio harveyi [11] = assay: Quorum Sensing, LuxS, LuxPQ Measured in Microorganism System Using Plate Reader - 2035-01_Inhibitor_DoseNoFile_DryPowder_Activity. [Related pubchem assays (depositor defined):AID2106]; format: functional, organism-based
Vibrio harveyi [12] = assay: LuxS/LuxPQ-dependent luminescence inhibition, V. harveyi – dry powder, set 2, dose response (AID 493072); format: functional, organism-based
HEK293 [13] = assay: inhibition of NOD1-driven NF-kB reporter – cell-based, luminescence, uHTS, primary screen (AID 1578); format: functional; conditions: Homo sapiens
HEK293 [14] = assay: cells; format: functional, cell-based; conditions: Homo sapiens
HEK293 [15] = assay: cells; format: functional, cell-based; conditions: Homo sapiens; remark: listed apart in the source
[16] = molecular target: Nucleotide-binding oligomerization domain-containing protein 2 (Homo sapiens, UniProt Q9HC29); assay: inhibition of NOD2-driven NF-kB reporter – cell-based, luminescence, uHTS, HEK293 (AID 1566); format: functional
HEK293 [17] = assay: NOD2 signaling inhibitors in MDP-stimulated cells, cell-based, uHTS, luminescence (AID 2001); format: functional; conditions: Homo sapiens
HEK293 [18] = assay: cells; format: functional, cell-based; conditions: Homo sapiens; remark: listed apart in the source

T1 sequence (Q01196 whole entry, the tested form may be a part): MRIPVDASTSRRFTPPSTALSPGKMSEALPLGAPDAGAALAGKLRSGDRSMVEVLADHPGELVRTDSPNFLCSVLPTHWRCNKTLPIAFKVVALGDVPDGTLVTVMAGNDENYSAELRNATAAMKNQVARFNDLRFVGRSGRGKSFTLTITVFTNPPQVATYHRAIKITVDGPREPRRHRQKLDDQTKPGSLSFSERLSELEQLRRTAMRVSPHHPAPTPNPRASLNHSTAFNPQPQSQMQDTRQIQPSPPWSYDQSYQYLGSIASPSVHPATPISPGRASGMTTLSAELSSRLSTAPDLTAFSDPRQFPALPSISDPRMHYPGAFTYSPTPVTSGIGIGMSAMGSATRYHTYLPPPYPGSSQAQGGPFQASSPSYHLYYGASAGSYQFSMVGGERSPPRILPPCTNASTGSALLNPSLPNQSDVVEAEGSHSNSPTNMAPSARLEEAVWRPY
T1 sequence (Q13951 whole entry, the tested form may be a part): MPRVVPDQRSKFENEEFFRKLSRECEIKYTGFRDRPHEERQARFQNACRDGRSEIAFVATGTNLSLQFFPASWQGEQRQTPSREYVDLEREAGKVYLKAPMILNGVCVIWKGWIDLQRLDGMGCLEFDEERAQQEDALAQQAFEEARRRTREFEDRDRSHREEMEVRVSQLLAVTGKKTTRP

Structure (SMILES): Cc1cccn2c(=O)c(/C=C(\C#N)C(N)=O)c(N3CCN(Cc4ccc5c(c4)OCO5)CC3)nc12
- IC50 [1]: > 100 µM (inactive)
- IC50 [2]: > 100 µM (inactive)
- IC50 (Fatty acid synthase [3]): 7.79 µM (active)
- IC50 (Fatty acid synthase [4]): 9.39 µM (active)

Structure (SMILES): CCOC(=O)N1CCN(C(=O)c2ccc(Cl)c(S(=O)(=O)N3CCOCC3)c2)CC1
- IC50 (Coagulation factor XII): > 50 µM (inactive)
- AC50 (Cytochrome P450 2C19): 39.8 µM (inconclusive)

Structure (SMILES): COc1cc(OC)c(C2CC(=O)N3CN(c4ccccc4)CSC3=C2C#N)cc1OC (stereo not given)
- EC50 [5]: > 50 µM (active)
- IC50 [6]: 6.01 µM (active)
- IC50 [7]: > 50 µM (inactive)
- IC50 [8]: > 80 µM (inactive)

Structure (SMILES): Fc1ccc(CNC(=S)c2ccc(Br)cc2)cc1C(F)(F)F
- IC50 [9]: 23.4 µM (active)
- IC50 [10]: 19.3 µM (active)

Structure (SMILES): CCc1ccc(S(=O)(=O)Nc2ccc(Br)cn2)cc1
- AC50 (Vibrio harveyi [11]): 3.22 µM (active)
- AC50 (Vibrio harveyi [12]): 8.16 µM (active)

Structure (SMILES): Cc1c(C(=O)N2CCN(c3ccc(F)cc3)CC2)sc2ncnc(N3CCN(c4ccccn4)CC3)c12
- EC50 (HEK293 [13]): 5.71 µM (active)
- IC50 (HEK293 [14]): 4.81 µM (active)
- IC50 (HEK293 [15]): 16.8 µM (active)
- EC50 [16]: 4.24 µM (active)
- IC50 (HEK293 [17]): 7.42 µM (inactive)
- IC50 (HEK293 [18]): 11.9 µM (active)
